Reference: patent US20140163095A1, “USE OF ERIBULIN IN THE TREATMENT OF BREAST CANCER” (priority 2012, published 2014)

Tested on: subjects with locally recurrent or metastatic HER2 negative breast cancer
Experiment: Phase II first-line trial, safety outcomes
Experimental: A multi-center, single-arm, phase II clinical trial of eribulin mesylate was performed to evaluate the objective response rate (ORR) (according to RECIST v1.1) to first-line treatment with single-agent eribulin mesylate in subjects with locally recurrent or metastatic HER2 negative breast cancer. Secondary objectives included the safety and tolerability of eribulin mesylate, time to first response, duration of response (DOR), and progression free survival (PFS).

Structure (SMILES): C=C1C[C@@H]2CC[C@@]34C[C@H]5O[C@H]6[C@@H](O3)[C@H]3O[C@H](CC[C@@H]3O[C@H]6[C@H]5O4)CC(=O)C[C@@H]3[C@@H](OC)[C@@H](C[C@H](O)CN)O[C@H]3C[C@H]3O[C@@H](CC[C@@H]1O2)C[C@@H](C)C3=C.CS(=O)(=O)O [Eribulin, 11,15:18,21:24,28-Triepoxy-7,9-ethano-12,15-methano-9H,15H-furo[3,2-i]furo[2′,3′:5,6]pyrano[4,3-b][1,4]dioxacyclopentacosin-5(4H)-one, 2-[(2S)-3-amino-2-hydroxypropyl]hexacosahydro-3-methoxy-26-methyl-20,27-bis(methylene)-, (2R,3R,3aS,7R,8aS,9S,10aR,11S,12R,13aR,13bS,15S,18S,21S,24S,26R,28R,29aS)-methanesulfonate (salt)]
- incidence of markedly abnormal lab value: low platelets (1/51): 2%
- leucopenia (treatment-related SAE) (1 patient): 1.8%
- patients with an abnormal but not clinically significant finding (3/52, throughout the study): 5.8%
- Febrile neutropenia (treatment-related SAE) (3 patients): 5.4%
- Treatment-related SAEs (5 patients): 8.9%
- patients who discontinued the study due to an AE (6 patients): 10.7%
- incidence of markedly abnormal lab value: low lymphocytes (8/44): 18.2%
- incidence of markedly abnormal lab value: low hemoglobin (8/55): 14.5%
- patients with dose interrupted/delayed due to treatment-related AEs (20 patients): 35.7%
- patients with dose reduced due to treatment-related AEs (20 patients): 35.7%
- Treatment-related AEs leading to dose adjustment (interruption/delay, reduction, or discontinuation) (30 patients): 53.6%
- incidence of markedly abnormal lab value: low leukocytes (31/54): 57.4%
- patients with a treatment-related AE with CTCAE grade ¾ (36 patients): 64.3%
- incidence of markedly abnormal lab value: low neutrophils (41/53): 77.4%
- Treatment-related AE: Alopecia (All grades, N = 56): 47 (83.9) n (%)
- Treatment-related AE: Anemia (All grades, N = 56): 20 (35.7) n (%)
- Treatment-related AE: Constipation (All grades, N = 56): 15 (26.8) n (%)
- Treatment-related AE: Diarrhea (All grades, N = 56): 14 (25.0) n (%)
- Treatment-related AE: Fatigue (All grades, N = 56): 34 (60.7) n (%)
- Treatment-related AE: Leukopenia (All grades, N = 56): 19 (33.9) n (%)
- Treatment-related AE: Nausea (All grades, N = 56): 27 (48.2) n (%)
- Treatment-related AE: Neutropenia (All grades, N = 56): 40 (71.4) n (%)
- Treatment-related AE: Peripheral neuropathy (All grades, N = 56): 32 (57.1) n (%)
- Treatment-related AE: Anemia (Grade 3/4, N = 56): 2 (3.6) n (%)
- Treatment-related AE: Constipation (Grade 3/4, N = 56): 0 n (%)
- Treatment-related AE: Diarrhea (Grade 3/4, N = 56): 0 n (%)
- Treatment-related AE: Fatigue (Grade 3/4, N = 56): 1 (1.8) n (%)
- Treatment-related AE: Leukopenia (Grade 3/4, N = 56): 12 (21.4) n (%)
- Treatment-related AE: Nausea (Grade 3/4, N = 56): 0 n (%)
- Treatment-related AE: Neutropenia (Grade 3/4, N = 56): 28 (50.0) n (%)
- Treatment-related AE: Peripheral neuropathy (Grade 3/4, N = 56): 11 (19.6) n (%)
- Alopecia, neutropenia, fatigue, and peripheral neuropathy (most commonly observed treatment-related AEs), each occurring in patients (human, in vivo): > 50%
- duration of grade ¾ peripheral neuropathy (median) (human, in vivo): 2.3 months
- median time to first occurrence of peripheral neuropathy (human, in vivo): 4 months
- AE requiring drug withdrawal in the remaining discontinued patient (in words): prolonged QT interval requiring drug withdrawal
- grade ¾ neutropenia, patients (most common grade ¾ AE): 50%
- Febrile neutropenia (grade 3/4) (number of patients): 4 patients
- discontinuations for which peripheral neuropathy was responsible (of the 6 events resulting in discontinuations): 5
